From patent US20240270737A1, “SMALL MOLECULAR INHIBITORS OF STING SIGNALING COMPOSITIONS AND METHODS OF USE” (STINGINN INC., priority 2021, published 2024)

Columns and labels:
[1] = system: IFNβ expression (type I IFNβ promoter driving luciferase); experiment: IFNβ promoter luciferase assay in hTERT-pIFNβ-Glu cells transfected with ISD; type: cell-based, human
Description: Inhibition of IFNβ expression was measured by Luciferase induction at 24 hours after transfection of ISD, DMSO is shown (230), ISD treatment only (220) was used as a control, according to an embodiment of the invention;
Inhibition of IFNβ expression was measured by Luciferase induction at 24 hours after transfection of ISD, Mock is shown (210), ISD treatment only (220) was used as a control, according to an embodiment of the invention;
Identification of small molecule inhibitors of STING. In the presence of cytosolic DNA species, STING becomes activated to drive the transcription of cytokines such as type I IFN. Compounds binding to STING via TSA were subsequently examined for their ability to prevent cytosolic DNA species from activating the type I interferon (IFN) promoter, using a live cell assay. This assay comprised immortalized human fibroblasts (hTERT) that were stably transfected with the type I IFN promoter driving luciferase as well as the CMV promoter driving SEAP (hTERT-pIFNβ-Glu). The live cell assay has previously been disclosed in PCT/US2019/025380 entitled IFN-Beta Reporter System for Immortalized Primary Cells inventor Glen N. Barber, which was filed Apr. 2, 2018 and published as WO2019195285, and which is herein incorporated by reference in its entirety and for all purposes. The ability of the small molecules to prevent activation of the type I IFN promoter and the transcription of luciferase, but not SEAP in response to cytosolic DNA species was assessed. The activation of STING, typically by CDNs, in turn activates the transcription factors NF-κB and IRF3, both of which are required to induce the transcriptional stimulation of the Type I IFN promoter, but not the CMV promoter as IRF3 and NF-kB transcription factor binding sites are not contained in the CMV promoter. The assay identified the small molecule Compound W1 in the first screen (HTS), where the level of luciferase was not able to activate the type I IFN promoter or induce the expression of luciferase (see Table I and Table II).
Inhibition of IFNβ expression was measured by Luciferase induction at 24 hours after transfection of ISD. ISD only treatment was used as control.
Inhibition of IFNβ expression was measured by Luciferase induction at 24 hours after transfection of ISD, Mock is shown (210), ISD treatment only (220) was used as a control.
Luciferase assay: hTERT-BJ1 Telomerase Fibroblasts stably expressing the luciferase gene under the control of the interferon-beta promoter and SEAP gene under control of the CMV promoter) (hTERT-pIFNβ-Glu) were generated by the Barber laboratory. Luciferase assay was performed using Secrete-Pair Dual Luminescence Assay Kit from GeneCopoeia following the manufacturer's protocol.

[2] = system: T1, human STING CBD-CTT (152-379); experiment: Thermal shift assay (TSA) binding to purified STING
T1 construct: made in house; host or cells: E. coli BL21 DE3 RIPL Codon Plus
From the text: Purified STING protein was used as bait to identify binding compounds, using a thermal shift assay (TSA). A library containing 250,000 compounds (Enamine, Monmouth Jct., NJ) was surveyed. Compounds that bound to STING were then examined for their ability to inhibit STING signaling, see Examples 1-4 vide infra. In the presence of cytosolic DNA species, STING becomes activated to drive the transcription of cytokines such as type I IFN. Compounds binding to STING via TSA were subsequently examined for their ability prevent cytosolic DNA species from activating the type I interferon (IFN) promoter, using a live cell assay. This assay comprised immortalized human fibroblasts (hTERT) that were stably transfected with the type I IFN promoter driving luciferase as well as the CMV promoter driving SEAP (hTERT-pIFNβ-Glu). The ability of the small molecules to prevent activation of the type I IFN promoter and the transcription of luciferase, but not SEAP in response to cytosolic DNA species can be assessed. […]
Thermal High Throughput Screen: The denaturation profile of purified STING (STING152-379H) was calibrated using a fluorometer equipped with temperature control (a qPCR apparatus with 320 well capacity). […] Curves were measured for STING only and STING+small molecule, and ΔTm was calculated. […]

**Q.** `Cc1cc([N+](=O)[O-])ccc1S(=O)(=O)Nc1nc2cc(C(F)(F)F)ccc2[nH]1` [Compound W1, 2-methyl-4-nitro-N-[5-(trifluoromethyl)-1H-1,3-benzodiazol-2-yl]benzene-1-sulfonamide] was tested. Which “activation of the type I IFN promoter in response to cytosolic DNA (luciferase)” value ([1]; 50 μM, 24 hours, ISD 3 μg/ml, hTERT-pIFNβ-Glu cells) did it give?
**A.** inhibited activation of the type I IFN promoter

**Q.** And the inhibition at 5 µM ([1]; Homo sapiens)?
**A.** 4%

**Q.** What about the “binding to STING” value [2] of the same compound?
**A.** binds to STING
